Numbered stars: 1 amine (or outer) side, 2 acyl side, 3 side chain; on linkers, the order of the positions; unused ones are H or OH. Bridge positions count the residues as written; N and C are the ends. Square brackets hold non-standard residues; d marks the D form. Peptide text beside a SMILES is read from it. * marks the point of attachment. hPhe(3-Cl-4-CF3) = N[C@@H](CCc1ccc(C(F)(F)F)c(Cl)c1)C(=O)O; NMePhe(4-CF3) = CN[C@@H](Cc1ccc(C(F)(F)F)cc1)C(=O)O; hPhe(4-CF3) = N[C@@H](CCc1ccc(C(F)(F)F)cc1)C(=O)O; NMePhe(4-Cl) = CN[C@@H](Cc1ccc(Cl)cc1)C(=O)O; NMePhe(4-Me) = CN[C@@H](Cc1ccc(C)cc1)C(=O)O; NMedβ3hAla = C[C@H](CC(=O)[*:2])N(C)[*:1]; NMeGly(cPent) = CN[C@H](C(=O)O)C1CCCC1; Phe(3-I) = N[C@@H](Cc1cccc(I)c1)C(=O)O; X26 = CC(C)=CC[C@H](N[*:1])C(=O)[*:2]; NMeCha = CN[C@@H](CC1CCCCC1)C(=O)O; X124 = O=C([C@H]1COCCN1[*:1])[*:2]; Hyp = O=C(O)[C@@H]1C[C@@H](O)CN1; NMeChg = CN[C@H](C(=O)O)C1CCCCC1; NMeF = CN[C@@H](Cc1ccccc1)C(=O)O; dNMeF = CN[C@H](Cc1ccccc1)C(=O)O; NMeD = CN[C@@H](CC(=O)O)C(=O)O; NMeL = CN[C@@H](CC(C)C)C(=O)O; dNMeAbu = CC[C@@H](NC)C(=O)O; d(β3hA) = C[C@@H](N)CC(=O)O; NMeS = CN[C@@H](CO)C(=O)O; NMeA = CN[C@@H](C)C(=O)O; NMeAib = CNC(C)(C)C(=O)O; Piperidide = C1CCN(*)CC1; Pra = C#CC[C@H](N)C(=O)O; dNMeA = CN[C@H](C)C(=O)O; Ac5c = NC1(C(=O)O)CCCC1; Aze = O=C(O)[C@@H]1CCN1; CH2CMe2OH = CC(C)(O)C*; NBuGly = CCCCNCC(=O)O; Aib = CC(C)(N)C(=O)O; Isopentyl = CC(C)CC*; NEtG = CCNCC(=O)O; Sar = CNCC(=O)O
target: protein-protein interaction between Kras and SOS1 (biotin-tagged human Kras loaded with GDP, His-tagged human SOS1) (Homo sapiens (Human), UniProt P01116, G12D); experiment: Protein-protein interaction inhibition between Kras and SOS1 (KrasG12D-SOS PPI) using AlphaScreen; assay type: biochemical; settings: AlphaScreen; biotin-tagged human Kras loaded with GDP, His-tagged human SOS1; read-out: KRAS G12D-SOS PPI IC50;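 note: kras produced in E. coli, Ni-coupled donor beads and streptavidin acceptor beads, excitation 680 nm with emission detected at 520–620 nm via singlet oxygen transfer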

| SMILES | IC50 [nM] |
| --- | --- |
| CC[C@H](C)[C@@H]1NC(=O)[C@H](C)N(C)C(=O)C[C@@H](C)NC(=O)[C@H](CC(C)C)N(C)C(=O)[C@H](Cc2ccccc2)N(C)C(=O)[C@@H]2C[C@@H](O)CN2C(=O)[C@H](CCc2ccc(C(F)(F)F)cc2)NC(=O)CN(C)C(=O)[C@H](Cc2ccc(Cl)cc2)N(C)C(=O)CN(C)C(=O)CN(C)C1=O [Compound 1375] (cyclo([Hyp][NMeF][NMeL][d(β3hA)][NMeA]I[Sar][Sar][NMePhe(4-Cl)][Sar][hPhe(4-CF3)])) | 9.3 |
| CC[C@H](C)[C@@H]1NC(=O)[C@H](CC(C)C)N(C)C(=O)C[C@@H](C(=O)N2CCCCC2)N(C)C(=O)[C@H](C2CCCCC2)N(C)C(=O)C2(CCCC2)NC(=O)[C@@H]2C[C@@H](O)CN2C(=O)[C@H](CCc2ccc(C(F)(F)F)c(Cl)c2)NC(=O)CN(C)C(=O)[C@H](CC2CCCCC2)N(C)C(=O)CN(C)C(=O)CN(C)C1=O [Compound 1376, (3S,9S,18S,21S,25S,28S,34S,36R)-3-[2-[3-chloro-4-(trifluoromethyl)phenyl]ethyl]-28-cyclohexyl-9-(cyclohexylmethyl)-36-hydroxy-21-isobutyl-7,10,13,16,22,26,29-heptamethyl-18-[(1S)-1-methylpropyl]-25-(piperidine-1-carbonyl)spiro[1,4,7,10,13,16,19,22,26,29,32-undecazabicyclo[32.3.0]heptatriacontane-31,1′-cyclopentane]-2,5,8,11,14,17,20,23,27,30,33-undecone] ([NMeL]I[Sar][Sar][NMeCha][Sar][hPhe(3-Cl-4-CF3)][Hyp][Ac5c][NMeChg][NMeD]-Piperidide; lactam N-11) | 0.71 |
| CC[C@H](C)[C@@H]1NC(=O)[C@H](C)N(C)C(=O)C[C@@H](C)N(C)C(=O)[C@H](CC(C)C)NC(=O)C(C)(C)N(C)C(=O)[C@H](CC(C)C)NC(=O)[C@H](CCc2ccc(C(F)(F)F)c(Cl)c2)NC(=O)[C@@H](C)N(C)C(=O)[C@H](Cc2ccc(C)cc2)N(C)C(=O)CN(C)C(=O)CN(C)C1=O [Compound 1381] (cyclo(I[Sar][Sar][NMePhe(4-Me)][dNMeA][hPhe(3-Cl-4-CF3)]L[NMeAib]L[NMedβ3hAla][NMeA])) | 150 |
| CC[C@H](C)[C@@H]1NC(=O)[C@H](CC(C)C)N(C)C(=O)C[C@@H](C)N(C)C(=O)[C@H](CC(C)C)NC(=O)C(C)(C)N(C)C(=O)[C@H](CC(C)C)NC(=O)[C@H](CCc2ccc(C(F)(F)F)c(Cl)c2)NC(=O)[C@@H](C)N(C)C(=O)[C@H](Cc2ccc(C)cc2)N(C)C(=O)CN(C)C(=O)CN(C)C1=O [Compound 1384] (cyclo(I[Sar][Sar][NMePhe(4-Me)][dNMeA][hPhe(3-Cl-4-CF3)]L[NMeAib]L[NMedβ3hAla][NMeL])) | 230 |
| CC[C@H](C)[C@@H]1NC(=O)[C@H](C)N(C)C(=O)C[C@@H](C)N(C)C(=O)[C@H](CC(C)C)NC(=O)C(C)(C)N(C)C(=O)[C@H](CC(C)C)NC(=O)[C@H](CCc2ccc(C(F)(F)F)c(Cl)c2)NC(=O)[C@@H](C)N(C)C(=O)[C@H](Cc2ccc(C(F)(F)F)cc2)N(C)C(=O)CN(C)C(=O)CN(C)C1=O [Compound 1385] (cyclo(I[Sar][Sar][NMePhe(4-CF3)][dNMeA][hPhe(3-Cl-4-CF3)]L[NMeAib]L[NMedβ3hAla][NMeA])) | 200 |
| CC[C@H](C)[C@@H]1NC(=O)[C@H](CC(C)C)N(C)C(=O)C[C@@H](C)N(C)C(=O)[C@H](CC(C)C)NC(=O)C(C)(C)N(C)C(=O)[C@H](CC(C)C)NC(=O)[C@H](CCc2ccc(C(F)(F)F)c(Cl)c2)NC(=O)[C@@H](C)N(C)C(=O)[C@H](CC2CCCCC2)N(C)C(=O)CN(C)C(=O)CN(C)C1=O [Compound 1389] (cyclo(I[Sar][Sar][NMeCha][dNMeA][hPhe(3-Cl-4-CF3)]L[NMeAib]L[NMedβ3hAla][NMeL])) | 240 |
| CC[C@H](C)[C@@H]1NC(=O)[C@H](C)N(C)C(=O)C[C@@H](C)N(C)C(=O)[C@H](CC(C)C)NC(=O)C(C)(C)N(C)C(=O)[C@H](CC(C)C)NC(=O)[C@H](CCc2ccc(C(F)(F)F)c(Cl)c2)NC(=O)[C@@H](C)N(C)C(=O)[C@H](CC2CCCCC2)N(C)C(=O)CN(C)C(=O)CN(C)C1=O [Compound 1390] (cyclo(I[Sar][Sar][NMeCha][dNMeA][hPhe(3-Cl-4-CF3)]L[NMeAib]L[NMedβ3hAla][NMeA])) | 280 |
| C#CC[C@@H]1NC(=O)[C@H](Cc2cccc(I)c2)NC(=O)CN(C)C(=O)[C@H](Cc2ccc(C(F)(F)F)cc2)N(C)C(=O)CN(C)C(=O)CN(C)C(=O)[C@H]([C@@H](C)CC)NC(=O)[C@H](CC(C)C)N(C)C(=O)C[C@@H](C)N(C)C(=O)[C@H](CC(C)C)NC(=O)C(C)(C)N(C)C1=O [Compound 1406] (cyclo(I[Sar][Sar][NMePhe(4-CF3)][Sar][Phe(3-I)][Pra][NMeAib]L[NMedβ3hAla][NMeL])) | 160 |
| CC[C@H](C)[C@@H]1NC(=O)[C@H](CC(C)C)N(C)C(=O)C[C@@H](C)N(C)C(=O)[C@H](CC(C)C)NC(=O)C(C)(C)N(C)C(=O)[C@H](CC=C(C)C)NC(=O)[C@H](Cc2cccc(I)c2)NC(=O)CN(C)C(=O)[C@H](Cc2ccc(Cl)cc2)N(C)C(=O)CN(C)C(=O)CN(C)C1=O [Compound 1418] (cyclo(I[Sar][Sar][NMePhe(4-Cl)][Sar][Phe(3-I)][X26][NMeAib]L[NMedβ3hAla][NMeL])) | 110 |
| CC[C@@H]1C(=O)NC2(CCCC2)C(=O)N(C)[C@@H](C2CCCC2)C(=O)N(C)[C@H](C(=O)N2CCCCC2)CC(=O)N(C)[C@@H](CC(C)C)C(=O)N[C@@H]([C@@H](C)CC)C(=O)N(C)CC(=O)N(C)CC(=O)N(C)[C@@H](CC2CCCCC2)C(=O)N(C)CC(=O)N[C@@H](CCc2ccc(C(F)(F)F)c(Cl)c2)C(=O)N1C [Compound 1439] ([NMeL]I[Sar][Sar][NMeCha][Sar][hPhe(3-Cl-4-CF3)][dNMeAbu][Ac5c][NMeGly(cPent)][NMeD]-Piperidide; lactam N-11) | 3.7 |
| CC[C@H](C)[C@@H]1NC(=O)[C@H](CC(C)C)N(C)C(=O)C[C@@H](C(=O)N2CCCCC2)N(C)C(=O)[C@H](C2CCCCC2)N(C)C(=O)C2(CCCC2)NC(=O)[C@H]2COCCN2C(=O)[C@H](CCc2ccc(C(F)(F)F)c(Cl)c2)NC(=O)CN(C)C(=O)[C@H](CC2CCCCC2)N(C)C(=O)CN(C)C(=O)CN(C)C1=O [Compound 1445] ([NMeL]I[Sar][Sar][NMeCha][Sar][hPhe(3-Cl-4-CF3)][X124][Ac5c][NMeChg][NMeD]-Piperidide; lactam N-11) | 250 |
| CC[C@H](C)[C@@H]1NC(=O)[C@H](CC(C)C)N(C)C(=O)C[C@@H](C(=O)N2CCCCC2)N(C)C(=O)[C@H](C2CCCC2)N(C)C(=O)C2(CCCC2)NC(=O)[C@@H](Cc2ccccc2)N(C)C(=O)[C@H](CCc2ccc(C(F)(F)F)c(Cl)c2)NC(=O)CN(C)C(=O)[C@H](CC2CCCCC2)N(C)C(=O)CN(C)C(=O)CN(C)C1=O [Compound 1446] ([NMeL]I[Sar][Sar][NMeCha][Sar][hPhe(3-Cl-4-CF3)][dNMeF][Ac5c][NMeGly(cPent)][NMeD]-Piperidide; lactam N-11) | 150 |
| CC[C@H](C)[C@@H]1NC(=O)[C@H](CC(C)C)N(C)C(=O)C[C@@H](C)NC(=O)[C@H](CC(C)C)N(C)C(=O)C2(CCCC2)NC(=O)[C@H](COCC(C)(C)O)N(C)C(=O)[C@H](CCc2ccc(C(F)(F)F)c(Cl)c2)NC(=O)CN(C)C(=O)[C@H](COCCC(C)C)N(C)C(=O)CN(C)C(=O)CN(CC)C1=O [Compound 1464] (cyclo([Ac5c][NMeL][d(β3hA)][NMeL]I[NEtG][Sar][NMeS](Isopentyl)[Sar][hPhe(3-Cl-4-CF3)][NMeS](CH2CMe2OH))) | 190 |
| CC[C@H](C)[C@@H]1NC(=O)[C@H](CC(C)C)N(C)C(=O)C[C@@H](C)NC(=O)[C@H](C2CCCC2)N(C)C(=O)C2(CCCC2)NC(=O)[C@@H]2CCCN2C(=O)[C@H](CCc2ccc(C(F)(F)F)c(Cl)c2)NC(=O)[C@@H](C)N(C)C(=O)[C@H](Cc2ccc(C(F)(F)F)cc2)N(C)C(=O)[C@@H]2CCN2C(=O)CN(C)C1=O [Compound 1468] (cyclo([Ac5c][NMeGly(cPent)][d(β3hA)][NMeL]I[Sar][Aze][NMePhe(4-CF3)][dNMeA][hPhe(3-Cl-4-CF3)]P)) | 90 |
| CC[C@H](C)[C@@H]1NC(=O)[C@H](C)N(C)C(=O)C[C@@H](C)NC(=O)[C@H](C2CCCC2)N(C)C(=O)C2(CCCC2)NC(=O)[C@@H]2CCCN2C(=O)[C@H](CCc2ccc(C(F)(F)F)c(Cl)c2)NC(=O)[C@H]2CCCN2C(=O)[C@H](Cc2ccc(C(F)(F)F)cc2)N(C)C(=O)CN(C)C(=O)CN(C)C1=O [Compound 1470] (cyclo([Ac5c][NMeGly(cPent)][d(β3hA)][NMeA]I[Sar][Sar][NMePhe(4-CF3)][dP][hPhe(3-Cl-4-CF3)]P)) | 210 |
| CC[C@H](C)[C@@H]1NC(=O)[C@H](CC(C)C)N(C)C(=O)C[C@@H](C)NC(=O)[C@H](C2CCCC2)N(C)C(=O)C2(CCCC2)NC(=O)[C@@H]2CCCN2C(=O)[C@H](CCc2ccc(C(F)(F)F)c(Cl)c2)NC(=O)CN(C)C(=O)[C@H](Cc2ccc(C)cc2)N(C)C(=O)CN(C)C(=O)CN(C)C1=O [Compound 1471] (cyclo([Ac5c][NMeGly(cPent)][d(β3hA)][NMeL]I[Sar][Sar][NMePhe(4-Me)][Sar][hPhe(3-Cl-4-CF3)]P)) | 1.7 |
| CCCCN1CC(=O)N(C)CC(=O)N(C)[C@@H](COCCC(C)C)C(=O)N(C)CC(=O)N[C@@H](CCc2ccc(C(F)(F)F)c(Cl)c2)C(=O)N[C@@H](COCC(C)(C)O)C(=O)NC(C)(C)C(=O)N(C)[C@@H](CC(C)C)C(=O)N[C@H](C)CC(=O)N(C)[C@@H](CC(C)C)C(=O)N[C@@H]([C@@H](C)CC)C1=O [Compound 1473] (cyclo([Aib][NMeL][d(β3hA)][NMeL]I[NBuGly][Sar][NMeS](Isopentyl)[Sar][hPhe(3-Cl-4-CF3)]S(CH2CMe2OH))) | 390 |
| CC[C@H](C)[C@@H]1NC(=O)[C@H](CC(C)C)N(C)C(=O)C[C@@H](C)NC(=O)[C@H](C2CCCC2)N(C)C(=O)C2(CCCC2)NC(=O)[C@@H]2CCCN2C(=O)[C@H](CCc2ccc(C(F)(F)F)c(Cl)c2)NC(=O)CN(C)C(=O)[C@H](Cc2ccc(C(F)(F)F)cc2)N(C)C(=O)[C@@H]2CCN2C(=O)[C@H](C)N(C)C1=O [Compound 1475] (cyclo([Ac5c][NMeGly(cPent)][d(β3hA)][NMeL]I[NMeA][Aze][NMePhe(4-CF3)][Sar][hPhe(3-Cl-4-CF3)]P)) | 2.7 |

Source: patent US20240148821A1, “PHARMACEUTICAL USE OF CYCLIC PEPTIDE COMPOUND” (CHUGAI SEIYAKU KABUSHIKI KAISHA, priority 2021, published 2024)
